Source: patent publication US8188091B2, “Tetrahydroquinazoline compounds and their use in preparing medicaments for treating and preventing virosis” (Beijing Molecule Science and Technology Co., Ltd., priority 2007, dated 2012)
Where two headings read alike, the source gives them in different places.

What was measured:
HBV DNA = assay: Antiviral activity: inhibition of HBV DNA in supernatant of HepG 2.2.15 cells (dot blot hybridization); format: cell-based, hepatitis B virus (HBV); settings: for IC50: Hepatitis B virus, HepG2.2.15, 192 h, read-out: IC50 (inhibition of the compounds on HBV DNA); for SI: selectivity index, TC50/IC50, HepG 2.2.15 cells
Description: The antiviral effects of the compounds according to the present invention was determined following the methods described by Sells et al. (M. A. Sells, M. L. Chen, g. Acs, Proc. Natl. Acad. Sci., 1987, 84, 1005-1009) and Korba et al., (B. E. Korba, J. L. Gerin, Antiviral Research, 1992, 19. 55-70).
(§1) The antiviral assays were carried out in 96-well microtitre plates. Only growth medium and HepG 2.2.15 cells were added to the first vertical row of the plate, as a blank control.
(§2) Stock solutions of the test compounds (50 mM) were initially dissolved in DMSO, and further dilutions were prepared in the growth medium of HepG 2.2.15 cell. The compounds according to the present invention, usually in a test concentration of 100 μg/ml (1st test concentration), were pipetted into each well in the second vertical test row of the microtitre plate and subsequently diluted by 2 times each time, up to 2^10-fold, using the growth medium plus 2% of foetal calf serum (volume 25 p. 1).
(§3) 225 μl of a HepG 2.2.15 cell suspension (5×10^4 cells/ml) in the growth medium plus 2% foetal calf serum were then added to each well of the microtitre plate.
(§4) The assay mixture was incubated at 37° C., 5% CO2 for 4 days. The supernatant was subsequently siphoned off and discarded, and 225 μl of freshly prepared growth medium were added to each well. Once more, the compounds according to the present invention were added, in a volume 25 μl of solution. The mixtures were incubated for another 4 days.
The supernatants were subsequently harvested and siphoned onto in vacuum 96-well dot blot chambers covered with a nylon membrane (in accordance with the instructions of the manufacturer).
Determination of the Antiviral Activity
After transfer of the supernatants onto the nylon membrane of the blot apparatus (see above), the supernatants of the HepG 2.2.15 cells were denatured (1.5 M NaCl/0.5 M NaOH), neutralized (3 M […]/0.5 M Tris HCl, pH 7.5) and washed (2×SSC). The DNA was subsequently baked onto the membrane By incubation of the filters at 120° C. for 2-4 hours.
The viral DNA of the treated HepG 2.2.15 cells on the nylon filter membrane was usually detected using non-radioactive digoxigenin-labelled hepatitis B-specific DNA probes, which were in each case labelled with digoxigenin, purified and used for hybridization in accordance with the instructions of the manufacturer.
Briefly speaking, the prehybridization and hybridization were carried out in 5×SSC, 1× a blocking agent, 0.1% N-lauroylsacosine, 0.02% SDS and 100 μg of DNA from herring sperm. The prehybridization was carried out at 60° C. for 30 minutes and the specific hybridization was carried out using 20 to 40 ng/ml of the digoxigenated denatured HBV-specific DNA (14 hours, 60° C.). The filler membrane was subsequently washed and the antibody against digoxigenin of HBV DNA was determined.
The digoxigenin-labelled DNA was detected immunologically in accordance with the instructions of the manufacturer.
Briefly speaking, the filler membranes were washed and prehybridized in the blocking agent (in accordance with the instructions of the manufacturer), and then hybridized for 30 minutes using an anti-DIG antibody previously coupled to an alkaline phosphatase. After washing, a substrate of alkaline phosphoesterase, CSPD, was added, incubated with the filter for 5 minutes, subsequently wrapped in a plastic film and incubated at 37° C. for a further 15 minutes. The chemiluminescene signals of the Hepatitis B-specific DNA were measured by exposition of the filters on an X-ray film (incubating for 10 minutes to 2 hours, depending on strength of the signals). The half-maximum inhibitory concentration (IC50) was determined.
The half-maximum inhibitory concentration (IC50) means the concentration of the compound according to the present invention at which the hepatitis B-specific band was reduced by 50% in comparison with an untreated sample.

[1] = Determination of the cytotoxicity in HepG 2.2.15 cells (microscopy, Reed & Muench); format: cell-based; settings: human, pathological changes at 8 days, read-out: TC50 (half-maximum toxic concentration)
Description: as §1, §2, §3, §4
Before the supernatants were harvested for determining the antiviral effect, the HepG 2.2.15 cells were examined by an optical microscopy or by biochemical detecting methods (for example Alamar Blue staining or Trypan Blue staining) for cytotoxic changes.
Determination of the Cytotoxicity
Substances-induced cytotoxic or cytostatic changes in the HepG 2.2.15 cells can be determined by for example a optical microscopy and expressed as changes in the cell morphology. Such substance-induced changes, for example, as cell lysis, vacuolization or changed cell morphology in the HepG 2.2.15 cells was apparent in comparison with those in untreated cells. The pathological changes were observed under a microscope at 8 days as indice, wherein a complete destroy being designated as 4, 75% as 3, 50% as 2, 25% as 1, and no pathological change as 0. The average degree of pathological change and inhibition percentages at various concentrations were calculated, and a half-maximum toxic concentration (TC50) and a maximum non-toxic concentration TC0 were determined according to Reed & Muench methods.
TC50 means the concentration of the compounds according to the present invention at which 50% of the cells have a morphology which is similar to that of the corresponding cell control.

[2] = Solubility of the hydrochloride solid in solvents; format: physicochemical
Description: 0.38 g of the object compound obtained in Example 1 was dissolved in 2 ml anhydrous ethanol, to which hydrogen chloride ethyl solution was added dropwise to precipitate a solid, and filtered to obtain an off-white powdery solid 0.41 g, mp 197-199° C.

[3] = HepG 2.2.15 cells, 8 days treatment

SMILES	IC50 (HBV DNA; [3]) [µM]	SI (HBV DNA)	CC50 at 8 days [1] [µM]	IC50 (HBV DNA) [µM]	solubility in dichloromethane, ethyl acetate, acetone, etc. ([2]; dichloromethane, ethyl acetate, acetone, etc.)	solubility in methanol and ethanol ([2]; methanol and ethanol)	solubility in water ([2]; water)	melting point [°C]
CC1(C)CC(=O)C2=C(C1)NC(c1cccnc1)=NC2c1ccccc1Cl (stereo not shown) [Example 7, 2-(pyridin-3-yl)-4-(2-chlorophenyl)-7,7-dimethyl-4,6,7,8-tetrahydroquinazolin-5(1H)-one]	26.2	2.57	67.3					
CC1(C)CC(=O)C2=C(C1)NC(c1ccccn1)=NC2c1ccc(F)cc1Cl (stereo not shown) [Example 12, 2-(pyridin-2-yl)-4-(2-chloro-4-fluorophenyl)-7,7-dimethyl-4,6,7,8-tetrahydroquinazolin-5(1H)-one]	> 26	<3.7	97					
O=C1CCCC2=C1C(c1ccc(F)cc1)N=C(c1cccnc1)N2 (stereo not shown) [Example 8, 2-(pyridin-3-yl)-4-(4-fluorophenyl)-4,6,7,8-tetrahydroquinazolin-5(1H)-one]	> 31.1	<4.7	148					
CC1(C)CC(=O)C2=C(C1)NC(c1c(F)cc(F)cc1F)=NC2c1ccc(F)cc1Cl (stereo not shown) [Example 11, 2-(2,4,6-trifluorophenyl)-4-(2-chloro-4-fluorophenyl)-7,7-dimethyl-4,6,7,8-tetrahydroquinazolin-5(1H)-one]	> 22.9	<3.2	73.7					
CC1(C)CC(=O)C2=C(C1)NC(c1cccnc1)=NC2c1ccc(F)cc1 (stereo not shown) [Example 4, 2-(pyridin-3-yl)-4-(4-fluorophenyl)-7,7-dimethyl-4,6,7,8-tetrahydroquinazolin-5(1H)-one]	25.3	5.73	145					
CC1(C)CC(=O)C2=C(C1)NC(c1cccnc1)=NC2c1ccccc1 (stereo not shown) [Example 5, 2-(pyridin-3-yl)-4-phenyl-7,7-dimethyl-4,6,7,8-tetrahydroquinazolin-5(1H)-one]	22.5	7.70	173					
O=C1CCCC2=C1C(c1ccccc1Cl)N=C(c1cccnc1)N2 (stereo not shown) [Example 9, 2-(pyridin-3-yl)-4-(2-chlorophenyl)-4,6,7,8-tetrahydroquinazolin-5(1H)-one]	> 29.6	<5.6	167					
O=C1CCCC2=C1C(c1ccccc1)N=C(c1cccnc1)N2 (stereo not shown) [Example 6, 2-(pyridin-3-yl)-4-phenyl-4,6,7,8-tetrahydroquinazolin-5(1H)-one]		<4.7	193	> 32.9				
CC1(C)CC(=O)C2=C(C1)NC(c1cccnc1)=NC2c1ccc(F)cc1Cl.Cl (stereo not shown) [Example 2, 2-(pyridin-3-yl)-4-(2-chloro-4-fluorophenyl)-7,7-dimethyl-4,6,7,8-tetrahydroquinazolin-5(1H)-one hydrochloride]					insoluble	soluble slightly	very easily soluable	
O=C1CCCC2=C1C(c1ccc(F)cc1Cl)N=C(c1cccnc1)N2 (stereo not shown) [Example 3, 2-(pyridin-3-yl)-4-(2-chloro-4-fluorophenyl)-4,6,7,8-tetrahydroquinazolin-5(1H)-one]	25.2	9.25	233					
CC1(C)CC(=O)C2=C(C1)NC(c1cccnc1)=NC2c1ccc(F)cc1Cl (stereo not shown) [Example 1, 2-(pyridin-3-yl)-4-(2-chloro-4-fluorophenyl)-7,7-dimethyl-4,6,7,8-tetrahydroquinazolin-5(1H)-one]	0.026	4192	109					186 to 187
O=C1CCCC2=C1C(c1ccc(F)cc1Cl)N=C(c1c(F)cc(F)cc1F)N2 (stereo not shown) [Example 10, 2-(2,4,6-trifluorophenyl)-4-(2-chloro-4-fluorophenyl)-4,6,7,8-tetrahydroquinazolin-5(1H)-one]	> 24.4	<3.8	94.1					
